Results: patent US8859021B2, “Skin appearance through gene manipulation” (Sytheon, priority 2007, dated 2014)

Test system: EpiDerm tissues
Conditions: retinol 10 μg/ml, Sytenol A 5 μg/ml, 2 days

C=C[C@@](C)(/C=C/c1ccc(O)cc1)CCC=C(C)C [Sytenol A, bakuchiol]
Laminins up-regulation by Sytenol A relative to retinol: almost three-fold more than retinol | Lecithin retinol acyltransferase up-regulation by Sytenol A relative to retinol: almost seven-fold higher than by retinol | Fold Change, ACTN1 Alpha-actinin-1 (Alpha-actinin cytoskeletal isoform) (Table 8) (vs 0.1% DMSO control): +2.70 fold | Fold Change, ACTN1 Alpha-actinin-1 (Alpha-actinin cytoskeletal isoform) (Table 9) (vs 0.1% DMSO control): +2.70 fold | Fold Change, ACTN4 Alpha-actinin-4(F-actin cross-linking protein) (Table 8) (vs 0.1% DMSO control): +3.13 fold | Fold Change, ACTN4 Alpha-actinin-4(F-actin cross-linking protein) (Table 9) (vs 0.1% DMSO control): +3.13 fold | Fold Change, AFAP1L2 Actin filament-associated protein 1-like 2 (vs 0.1% DMSO control): +3.84 fold | Fold Change, C16orf30 Claudin-like protein 24 (vs 0.1% DMSO control): No effect | Fold Change, CDH1 Epithelia-cadherin precursor (E-cadherin) (Table 7) (vs 0.1% DMSO control): +21.56 fold | Fold Change, CDH1 Epithelial-cadherin precursor (E-cadherin) E-Cad/CTF1 (Table 9) (vs 0.1% DMSO control): +21.56 fold | Fold Change, CDH3 Cadherin-3-precursor (P-cadherin) (vs 0.1% DMSO control): +7.47 fold | Fold Change, CDH19 Cadherin-19-precursor (vs 0.1% DMSO control): No effect | Fold Change, CDH24 Cadherin-24-precursor (vs 0.1% DMSO control): +2.28 fold | Fold Change, CDK5R1 Tau protein kinase II 23 kDa subunit (Cyclin-dependent kinase 5 activator 1 precursor (CDK5 activator 1)) (vs 0.1% DMSO control): +2.66 fold | Fold Change, CLDN4 Claudin-4 (Clostridium perfringens enterotoxin receptor) (CPE-R) (vs 0.1% DMSO control): +5.92 fold | Fold Change, CLDN5 Claudin-5 (Transmembrane protein deleted in VCFS) (vs 0.1% DMSO control): No effect | Fold Change, CLDN6 Claudin-6 (Skullin 2) (vs 0.1% DMSO control): No effect | Fold Change, CLDN7 Claudin-7 (CLDN-7) (vs 0.1% DMSO control): +46.09 fold | Fold Change, CLDN11 Claudin-11 (Oligodendrocyte-specific protein) (vs 0.1% DMSO control): −4.01 fold | Fold Change, CLDN12 Claudin-12 (vs 0.1% DMSO control): +2.00 fold | Fold Change, CLDN16 Claudin-16 (Paracellin-1) (PCLN-1) (vs 0.1% DMSO control): +11.62 fold | Fold Change, COL1A2 Collagen alpha-2 (I) chain precursor (Alpa-2 type I collagen) (vs 0.1% DMSO control): +1.85 fold | Fold Change, COL3A1 Collagen alpha-1 (III) chain precursor (vs 0.1% DMSO control): No effect | Fold Change, COL9A2 Collagen alpha-2 (IX) chain precursor (vs 0.1% DMSO control): +6.67 fold | Fold Change, COL9A3 Collagen alpha-3 (IX) chain precursor (vs 0.1% DMSO control): +5.76 fold | Fold Change, CTHRC1 Collagen triple helix repeat-containing protein 1 precursor (vs 0.1% DMSO control): −10.17 fold | Fold Change, CTNNAL1 Alpha-catenin-related protein (ACRP) (Table 8) (vs 0.1% DMSO control): No effect | Fold Change, CTNNAL1 Alpha-catenin-related protein (ACRP) (Table 9) (vs 0.1% DMSO control): No effect | Fold Change, CYP26B1 Cytochrome P450 26B1 (Retinoic acid-metabolizing cytochrome) (vs 0.1% DMSO control): −1.74 fold | Fold Change, Connective tissue growth factor precursor (Hypertrophic chondrocyte-specific protein 24) (vs 0.1% DMSO control): −2.56 fold | Fold Change, DHRS9 NADP-dependent retinol dehydrogenase/reductase (vs 0.1% DMSO control): +11.56 fold | Fold Change, DSC1 Desmocollin-1-precursor (DG2/DG3) (vs 0.1% DMSO control): −5.96 fold | Fold Change, DSC2 Desmocollin-2-precursor (Desmocollin-3) (vs 0.1% DMSO control): +4.68 fold | Fold Change, DSG1 Desmoglein-1-precursor (DG1) (vs 0.1% DMSO control): −2.26 fold | Fold Change, DSG2 Desmoglein-2-precursor (vs 0.1% DMSO control): +20.15 fold | Fold Change, DSG3 Desmoglein-3-precursor (vs 0.1% DMSO control): +4.25 fold | Fold Change, DSG4 Desmoglein-4-precursor (vs 0.1% DMSO control): +10.59 fold | Fold Change, ECM1 Extracellular matrix protein 1 precursor (vs 0.1% DMSO control): +2.00 fold | Fold Change, ECM2 Extracellular matrix protein 2 precursor (vs 0.1% DMSO control): +4.10 fold | Fold Change, ELA3B Elastase-3B precursor (Elastase IIIB) (vs 0.1% DMSO control): +6.58 fold | Fold Change, F11R Junctional adhesion molecule 1 (JAM-1) (vs 0.1% DMSO control): +8.92 fold | Fold Change, FLNB Actin-binding-like protein (vs 0.1% DMSO control): +5.87 fold | Fold Change, FLRT2 Fibronectin-like-domain-containing leucine-rich transmembrane protein 2 (vs 0.1% DMSO control): No effect | Fold Change, FLRT3 Fibronectin-like-domain-containing leucine-rich transmembrane protein 3 (vs 0.1% DMSO control): +6.18 fold | Fold Change, FNDC7 Fibronectin type III domain containing 7 (vs 0.1% DMSO control): +9.14 fold | Fold Change, Fibroblast growth factor 9 (HBGF-9) (vs 0.1% DMSO control): −2.34 fold | Fold Change, Fibroblast growth factor 23 precursor (FGF-23) (Tumor-derived hypophosphatemia-inducing factor) (vs 0.1% DMSO control): −3.01 fold | Fold Change, Fibroblast growth factor receptor 2 precursor (FGFR-2) (vs 0.1% DMSO control): +8.93 fold | Fold Change, Fibroblast growth factor-binding protein 1 precursor (FGF-BP1) (vs 0.1% DMSO control): +2.69 fold | Fold Change, GSN Gelsolin precursor (Actin-depolymerizing factor) (ADF) (vs 0.1% DMSO control): +3.19 fold | Fold Change, HAS2 Hyaluronan synthase 2 (vs 0.1% DMSO control): No effect | Fold Change, HAS3 Hyaluronan synthase 3 (vs 0.1% DMSO control): +19.29 fold | Fold Change, HS3ST1 Heparan sulfate 3-O-sulfotransferase 1 (Table 6) (vs 0.1% DMSO control): +24.91 fold | Fold Change, HS6ST1 Heparan sulfate 6-O-sulfotransferase 1 (vs 0.1% DMSO control): +1.79 fold | Fold Change, HYAL1 Hyaluronidase-1-precursor (vs 0.1% DMSO control): No effect | Fold Change, Heparin-binding EGF-like growth factor precursor (HB-EGF) (vs 0.1% DMSO control): +5.09 fold | Fold Change, IGSF1 Immunoglobulin superfamily, member 1 isoform 1 (vs 0.1% DMSO control): +2.81 fold | Fold Change, IGSF3 Immunoglobulin superfamily, member 3 isoform 2 (vs 0.1% DMSO control): +3.39 fold | Fold Change, ITG5 Integrin beta-5 precursor (Table 7) (vs 0.1% DMSO control): No effect | Fold Change, ITGA6 Integrin alpha-6 precursor (vs 0.1% DMSO control): +3.57 fold | Fold Change, ITGB2 Integrin beta-2-precursor (vs 0.1% DMSO control): −7.67 fold | Fold Change, ITGB4 Integrin beta-4 precursor (Table 7) (vs 0.1% DMSO control): +7.98 fold | Fold Change, ITGB6 Integrin beta-6-precursor (Table 7) (vs 0.1% DMSO control): +7.71 fold | Fold Change, ITGB8 Integrin beta-8 precursor (Table 3) (vs 0.1% DMSO control): +3.90 fold | Fold Change, ITGB8 Integrin beta-8 precursor (Table 7) (vs 0.1% DMSO control): +3.90 fold | Fold Change, Insulin growth factor-like family member 3 precursor (IGBP-3) (vs 0.1% DMSO control): −8.67 fold | Fold Change, Insulin growth factor-like family member 4 precursor (IGBP-4) (vs 0.1% DMSO control): +2.41 fold | Fold Change, Insulin-like growth factor-binding protein 6 precursor (IGBP-6) (vs 0.1% DMSO control): +4.03 fold
